# Data as given in patent US11331326B2, “Composition for prevention or treatment of inflammatory skin diseases or severe pruritus comprising the aqueous solubilized ursodeoxycholic acid” (AMICOGEN PHARMA INC., priority 2016, dated 2022).
# How the values were obtained:
# [1] = Solubility of ursodeoxycholic acid in water; type: physicochemical; settings: pH 1 to 8
# [2] = protonated form (pH 1 to 8); cited from earlier work
# [3] = crystalline type of ursodeoxycholic acid; cited from earlier work
# [4] = oral administration, crystalline form of UDCA; cited from earlier work
smiles,measurement,setting,value
"C[C@H](CCC(=O)NCCS(=O)(=O)O)[C@H]1CC[C@H]2[C@@H]3[C@@H](O)C[C@@H]4C[C@H](O)CC[C@]4(C)[C@H]3CC[C@]12C [TUDCA, tauroursodeoxycholic acid]",solubility relative to the commercialized UDCA,[1],about 10 times
same,solubility,[2],450 µM
"C[C@H](CCC(=O)O)[C@H]1CC[C@H]2[C@@H]3[C@@H](O)C[C@@H]4C[C@H](O)CC[C@]4(C)[C@H]3CC[C@]12C [UDCA, ursodeoxycholic acid]",solubility,[2],about 0.05 mM
same,"acid dissociation constant, pKa",[3],about 5.0
same,fraction absorbed at the ileum of the colon by the active transport mechanism,[4],up to 20 % of intakes
